According to US10774082B2, “Quinazoline compound” (Astellas Pharma Inc., priority 2017, dated 2020):

Columns and labels:
NCI-H1373 cells = experiment: Anchorage-independent cell proliferation inhibitory action, NCI-H1373 spheroid three-dimensional culture; assay type: cell-based, Human; details: Homo sapiens, NCI-H1373, 144 h, NCI-H1373 spheroid, six days, CellTiter Glo; read-out: IC50 (anchorage-independent cell proliferation inhibition)
Experimental: Evaluation of Anchorage-Independent Cell Proliferation Inhibitory Action with Respect to Human KRAS G12C Mutation Positive Non-Small Cell Lung Cancer Strain NCI-H1373
An anchorage-independent cell proliferation inhibitory action by the test compound was evaluated by a spheroid three-dimensional culture.
NCI-H1373 cells were seeded in cell low adsorption U bottom 384 well plates (Prime Surface: Sumitomo Bakelite Co., Ltd.) at 36 μL/well each so as to be 5×10^2 cell per well. The cell culture was performed under the same conditions as Test example 2.
The next day, the test compounds (six points in a range of final concentration 1,000 nM to 0.3 nM) and DMSO which is a solvent of the test compound as a negative control were diluted 100-fold with fresh medium, 4 μL each was added to each well. After culturing at 37° C. in the presence of 5% CO2 for six days, 20 μL of CellTiter Glo or to CellTiter Glo 2.0 (Promega Corporation) was added to each well. After stirring for one hour at room temperature using a plate mixer (FINEPCR), an emission signal was measured with ARVO X3 (PerkinElmer Co., Ltd.).
When a signal value in a DMSO treatment was set as 0% inhibition, and a signal value in cell-free medium only was set as 100% inhibition, a value of 50% inhibition (IC50) was calculated through Sigmoid-Emax model nonlinear regression analysis.

[1] = target: T1, KRAS G12C/SOS/c-Raf complex (Homo sapiens, UniProt P01116, G12C); experiment: KRAS G12C/SOS/c-Raf complex formation inhibitory action (TR-FRET); assay type: biochemical; details: one hour at room temperature, read-out: IC50 (KRAS G12C/SOS/c-Raf complex formation inhibition)
T1 construct: Biotinylated AviTag-KRAS G12C (amino acid region 1-185, GDP)
Experimental: Evaluation of KRAS G12C/SOS/c-Raf Complex Formation Inhibitory Action
Human Recombinant KRAS G12C, SOS, and c-Raf protein were used, and with respect to the complex formation of these proteins, an inhibitory action of the test compound was examined through a time-resolved fluorescence resonance energy transfer (TR-FRET) method.
Biotinylated AviTag-KRAS G12C (amino acid region 1-185, GDP) (2.5 μL; 400 nM) dissolved in assay buffer (50 mM HEPES, 150 mM NaCl, 5 mM MgCl2, 0.05% Tween 20, pH 7.4) and test compound were added in a volume of 2.5 μL from 4,000 nM to 4 nM were added to 384 well plate (Corning Inc). Son of Sevenless (SOS) (amino acid region 564-1049, 2.5 μL; 1.3 μM) and c-Raf (amino acid region 51-131) GST containing GTP (Sigma-Aldrich Co. LLC) (2.5 μL; 130 nM and 4 μM of each) were added to the above mixture, and the resultant was left to stand for one hour at room temperature. Thereafter, a mixed solution (10 μL) of LANCE Ulight-anti-GST (120 nM, PerkinElmer. Co., Ltd) and LANCE Eu-W1024 labeled Streptoavidin (100 ng/mL, PerkinElmer. Co., Ltd) was added, and a fluorescence intensity on the condition of wavelength of 620 nm and 665 nm was measured by using EnVision 2103 Multilabel Reader (PerkinElmer Co., Ltd.) under the condition of excitation wavelength of 337 nm. […] In Tables, Ex represents Example numbers described later. In addition, in Tables, Compound C represents a test compound of Example I-59 disclosed in Pamphlet of International Publication No. WO 2016/164675, and the structures of Reference Example 1 and Reference Example 2 are indicated in Table 168 described below (the same shall apply hereinafter).

[2] = test system: ERK phosphorylation (Thr 202/Tyr 204) in NCI-H1373 cells; experiment: ERK phosphorylation inhibitory action in NCI-H1373 (Cell ELISA); assay type: cell-based, Human; details: Homo sapiens, NCI-H1373, 2 h, NCI-H1373 cells, cultured for 2 hours, 100% = 1 μM Trametinib; read-out: IC50 (ERK phosphorylation inhibition)
Experimental: Evaluation of ERK Phosphorylation Inhibitory Action with Respect to Human KRAS G12C Mutation Positive Non-Small Cell Lung Cancer Strain NCI-H1373
The ERK phosphorylation inhibitory action by the test compound was evaluated by measuring phosphorylation of 202th threonine (Thr 202) and 204th tyrosine (Tyr 204) of ERK on the downstream of the KRAS signal by Cell ELISA.
NCI-H1373 cells (ATCC, CRL-5866) were seeded in 384 well plates (Greiner bio-one) at 36 μL/well each so as to be 2×10^4 cell per well. Cell culture was performed under the conditions of temperature of 37° C. in the presence of 5% CO2 by using RPMI 1640 medium (Sigma-Aldrich Co. LLC) containing 10% fetal bovine serum (GE Life Sciences).
The next day, the test compounds (six points in a range of final concentration 1,000 nM to 0.3 nM), final concentration 1 μM of Trametinib (GlaxoSmithKline Inc.; MEK inhibitor) as a positive control, and DMSO which is a solvent of the test compound as a negative control were diluted 100-fold with fresh medium, 4 μL each was added to each well, and then cultured for 2 hours. Immediately after culturing, 30 μL of 30% glyoxal solution (Wako: 40% glyoxal diluted with Phosphate Buffered Saline (PBS; Wako)) was added to each well, and the cells were left to stand at room temperature for one hour to be fixed. Thereafter, the supernatant was removed by centrifuging the plate (110×g for 7 seconds, unless otherwise stated below under the same conditions), and 20 μL of PBS containing 0.1% Triton X-100 (Amersham Biosciences Corp.) was added to each well. After being left to stand at room temperature for 10 minutes, the supernatant was removed by centrifugation, and the same operation was repeated. Next, 20 μL of PBS containing 0.5% SDS (Invitrogen) was added to each well, and the mixture was left to stand at room temperature for 30 minutes, and then centrifuged to remove the supernatant. Subsequently, 20 μL of a blocking solution (ODYSSEY Blocking Buffer; LI-COR Biosciences) was added to each well, and left to stand at room temperature for one hour. The supernatant was removed by centrifugation, and 10 μL of a blocking solution prepared by diluting ERK (Thr 202/Tyr 204) of a phosphorylation antibody (Cell Signaling Technology, Inc.) as a primary antibody to be ½, 500 amount with respect to a stock solution was added to each well and was left to stand at 4° C. for overnight.
The next day, a reaction liquid is removed by centrifuging the plate, 20 μL of 0.05% Tween-20-containing PBS (Thermo Scientific; 20×PBS Tween-20 diluted 20-fold with ion exchanged water) was added to each well, and each well was washed by removing the supernatant by centrifugation. Washing was performed three times in total. After washing, 10 μL of a blocking solution prepared by diluting IRDye 800CW Goat anti-Rabbit IgG (LI-COR Biosciences) as a secondary antibody to be 1/1,000 amount with respect to a stock solution was added to each well and was left to stand at room temperature for one hour. The reaction liquid was removed by centrifuging the plate, and each well was washed three times with 0.05% Tween-20-containing PBS in the same manner as after primary antibody reaction. The centrifugation after the third wash was 171×g for 17 seconds. After removal of the cleaning solution, the plate was left to air dry at room temperature for three hours or more and the fluorescent signal at 800 nm was measured by Aerius (LI-COR Biosciences).
When a signal value at the time of adding DMSO was set as 0% inhibition, and a signal value at the time of adding 1 μM of Trametinib was set as 100% inhibition, a value of 50% inhibition (IC50) was calculated through Sigmoid-Emax model nonlinear regression analysis.

T1 sequence (P01116 1-185 isoform P01116-2 G12C, one chain of several): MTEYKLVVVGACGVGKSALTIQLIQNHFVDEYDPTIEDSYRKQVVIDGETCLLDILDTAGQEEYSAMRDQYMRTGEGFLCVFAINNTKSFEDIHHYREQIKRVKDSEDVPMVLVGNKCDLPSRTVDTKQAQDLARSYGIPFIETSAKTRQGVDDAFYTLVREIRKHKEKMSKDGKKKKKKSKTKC

Row | IC50 (NCI-H1373 cells) [nM] | IC50 [1] [nM] | IC50 [2] [nM] | SMILES
1 | 18 | 43 | 11 | C=CC(=O)N1CC2(CCN(c3nc(OC4CCN(CCN(CC)CC)CC4)nc4c(OCC(F)(F)F)c(-c5c(C)ccc6[nH]ncc56)c(C=C)cc34)CC2)C1 [Example 67]
2 | 16 | 45 | 12 | C=CC(=O)N1CC2(CCN(c3nc(NC4CCN(C)CC4)nc4c(OCC(F)(F)F)c(-c5c(C)ccc6[nH]ncc56)c(C=C)cc34)CC2)C1 [Example 68]
3 | 17 | 50 | 12 | C=CC(=O)N1CC2(CCN(c3nc(OC4CCCN(C)CC4)nc4c(OCC(F)(F)F)c(-c5c(C)ccc6[nH]ncc56)c(C=C)cc34)CC2)C1 (stereo not drawn) [Example 69]
4 | 71 | 79 | 18 | C=CC(=O)N1CC2(CCN(c3nc(OC4CCN(C(=O)N(C)C)CC4)nc4c(OCC(F)(F)F)c(-c5c(C)ccc6[nH]ncc56)c(C=C)cc34)CC2)C1 [Example 70]
5 | 10 | 40 | 14 | C=CC(=O)N1CC2(CCN(c3nc(OCCCN(C)C)nc4c(OCC(F)(F)F)c(-c5c(C)ccc6[nH]ncc56)c(C=C)cc34)CC2)C1 [Example 71]
6 | 24 | 41 | 14 | C=CC(=O)N1CC2(CCN(c3nc(OC4CCN(C5CCN(C)CC5)CC4)nc4c(OCC(F)(F)F)c(-c5c(C)ccc6[nH]ncc56)c(C=C)cc34)CC2)C1 [Example 72]
7 | 28 | 44 | 15 | C=CC(=O)N1CC2(CCN(c3nc(OC4CCN(CCN5CCCC5)CC4)nc4c(OCC(F)(F)F)c(-c5c(C)ccc6[nH]ncc56)c(C=C)cc34)CC2)C1 [Example 73]
8 | 21 | 50 | 15 | C=CC(=O)N1CC2(CCN(c3nc(OC4CCN(C)CC4)nc4c(OCC(C)C)c(-c5c(C)ccc6[nH]ncc56)c(C=C)cc34)CC2)C1 [Example 74]
9 | 43 | 51 | 15 | C=CC(=O)N1CC2(CCN(c3nc(OC4CCS(=O)(=O)CC4)nc4c(OCC(F)(F)F)c(-c5c(C)ccc6[nH]ncc56)c(C=C)cc34)CC2)C1 [Example 75]
10 | 25 | 43 | 15 | C=CC(=O)N1CC2(CCN(c3nc(N4CCCN(C)CC4)nc4c(OCC(F)(F)F)c(-c5c(C)ccc6[nH]ncc56)c(C=C)cc34)CC2)C1 [Example 76]
11 | 32 | 56 | 16 | C=CC(=O)N1CC2(CCN(c3nc(OC4CCN(CCOC)CC4)nc4c(OCC(F)(F)F)c(-c5c(C)ccc6[nH]nc(Cl)c56)c(C=C)cc34)CC2)C1 [Example 77]
12 | 24 | 47 | 16 | C=CC(=O)N1CC2(CCN(c3nc(OC4CCN(CCOC)CC4)nc4c(OCC(F)(F)F)c(-c5c(C)cc(F)c6[nH]ncc56)c(C=C)cc34)CC2)C1 [Example 78]
13 | 43 | 57 | 16 | C=CC(=O)N1CC2(CCN(c3nc(OC4CCN(CCOC)CC4)nc4c(OCC(F)(F)C(F)(F)F)c(-c5c(C)ccc6[nH]ncc56)c(C=C)cc34)CC2)C1 [Example 79]
14 | 75 | 166 | 16 | C=CC(=O)N1CC2(CCN(c3nc(OC4CCN(CC(F)(F)F)CC4)nc4c(OCC(F)(F)F)c(-c5c(C)ccc6[nH]ncc56)c(C=C)cc34)CC2)C1 [Example 80]
15 | 26 | 41 | 16 | C=CC(=O)N1CC2(CCN(c3nc(OC4CCN(CCS(C)(=O)=O)CC4)nc4c(OCC(F)(F)F)c(-c5c(C)ccc6[nH]ncc56)c(C=C)cc34)CC2)C1 [Example 81]
16 | 51 | 108 | 16 | C=CC(=O)N1CC2(CCN(c3nc(OC4CCN(CCCOC(F)(F)F)CC4)nc4c(OCC(F)(F)F)c(-c5c(C)ccc6[nH]ncc56)c(C=C)cc34)CC2)C1 [Example 83]
17 | 27 | 56 | 17 | C=CC(=O)N1CC2(CCN(c3nc(OCCCN4CCOCC4)nc4c(OCC)c(-c5c(C)ccc6[nH]ncc56)c(C=C)cc34)CC2)C1 [Example 85]
